“Also recorded” adds a separate entry of the source.
How the values were obtained:
Type in all cases: cell-based
[1] = tested on: Human articular chondrocytes; assay: MTT assay; conditions: human articular chondrocytes in culture, 96 hours
Experimental: Chondrocytes were isolated from non-arthritic regions of adult human articular cartilage (N=3 donors) and expanded in tissue culture flasks in DMEM supplemented with 10% calf serum.
The following compounds were provided by Chromadex, Inc. and tested from 1 uM to 500 uM:
Human articular chondrocytes were seeded in 96-well culture trays at a density of 5000 cells/well and incubated with the selected concentration of the anthocyanin for 4 days. At the end of the 4 day period, fresh MTT (3(4,5-Dimethylthiazol-2-yl)-2,5-diphenyltetrazolium bromide) was made in PBS and filter sterilized. MTT (25 ul per well) was added to the cell culture and incubated for 5 hours in the CO2 incubator at 37° C. Yellow MIT is reduced to purple formazan in living cells. The supernatant from each well was removed, and 200 Ill of DMSO was added. A multi-channel pipette was used to dissolve crystals. The microplate was placed back into the incubator at 37° C. for 5 min. Formazan levels in each well were read using a spectrophotometer at 550 nm wavelength.

[2] = tested on: IGF-1; assay: IGF-1 production by ELISA, human cartilage explants; conditions: for IGF-1 production compared to IL-1 alone: human cartilage explants, 5 or 50 ug/mL (FIGS. 7, 8)
Experimental: (§1) Full thickness cartilage slices (20-25 mg) were dissected from the cartilage using a sterile scalpel blade. Four to five cartilage pieces that were approximately equal in size and weight were transferred to each well of a 24-well, flat bottom plate (Nuns, Denmark) containing DMEM:F12 (1:1) supplemented with antibiotics and 10% FCS and cultured for 24 hours. Subsequently the cartilage explants were cultured overnight in serum free media. The cartilage explants were treated with IL-β alone or with IL-β positive test agents for 72 hours in serum free media. Explants cultured in the absence of IL-β or test agents were used as controls. Additionally, the actions of kuromanin or cyanidin chloride were examined independently of IL-β exposure (5 ng/mL). Where appropriate, explants were exposed to test agents 15 minutes prior to the treatment with IL-β. Total glycosaminoglycan present in the culture supernatant was estimated as described below.
Human IGF-1 label in chondrocytes culture or cartilage explant media was quantified using a commercially available Human IGF-1 ELISA kit (R& D Systems) per manufacturer's directions.

[3] = tested on: human cartilage explants; assay: Cartilage breakdown as determined by GAG release in human cartilage explants; conditions: for GAG release under basal conditions: high dose (50 ug/mL) alone, no IL-1; for IL-1 induced GAG release (chondroprotection): human cartilage explants, IL-1 plus test agent 5 or 50 ug/mL, 72 hours
Text: Human osteoarthritic cartilage samples were procured through the Tissue Procurement Facility of the University Hospitals of Cleveland/Case Western Reserve University and with prior approval of the IRB of University Hospitals of Cleveland. The cartilage samples were obtained from patients undergoing total anthroplasty of the knee due to degenerative joint diseases. In all cases care was taken to use only “macroscopically normal” cartilage samples. No samples were exposed to radiation solely for the purpose of these studies but almost all patients will have received X-rays as part of their clinical presentation during the execution of care. The same donor tissue was not used in all experiments but untreated controls were included in all protocols.
as §1
At the end of culture period, the culture medium was collected from each group. A 50 uL aliquot of collected supernatant from each sample was utilized to estimate the total glycosaminoglycan (GAG) concentration by a colorimetric method employing a DMMB as previously described (Miller M J S et al., BMC Complementary and Alternative Med 2006 6; 13). Color intensity was read spectrophotometrically at 535 nm using the Lambda 25 spectrophotometer (Perkin-Elmer, CT) and the values were derived from a standard curve prepared using different concentrations of chondroitin sulfate. Results are expressed as micrograms of glycosaminoglycan released per mg of cartilage tissue.

[4] = tested on: human osteoarthritic cartilage explants; assay: Matrix synthesis (35S uptake) in human osteoarthritic cartilage explants
Experimental: Bovine cartilage explants (full thickness, 6 mm in diameter) were harvested from fresh femoral condyles. Human osteochondral plugs were harvested using 6 mm osteochondral grafting donor tool (Arthrez 1981-06S, Naples, Fla.) from femoral condyles retrieved from total knee arthroplasty surgery that had been stored in DMEM at 20 degrees C. for less than 24 hours. Full-thickness cartilage explants were cut from the subchondral bone. Each of the 6 mm cartilage disks were divided into 4 equal quadrants. Each quadrant was placed in a different experimental group. This allowed for a paired comparison and controlled for differences in grade of arthritis, thickness of cartilage, cell density, etc. The explants were washed 4-5 times with DMEM with 10% calf serum and were allowed to stabilize for 24 hours in a tissue culture incubator. Explants were then serum starved (0.1% calf serum) for 24 hours prior to commencement of cyanidin chloride treatment.
3 mL fresh media with 20 uCi/mL of ^35S-labeled sodium sulfate (NEX0414 Perkin Elmer, Boston, Mass.) (DMEM with 10% CS) was added to each of the explants along with 30 uL of 50 mM stock cyanidin chloride (MW 322.7 g/mole) solution (diluted in DMSO) (Chromadex Inc., Irvine, Calif.) to give the final cyanidin chloride concentration of (200 or 500 uM) in culture. Explants were subjected to cyanidin chloride treatment for 48 hours.
Radioactive media was aspirated after 48 hours and explants were washed in ice-cold 1×PBS for 10 minutes×3. Each cartilage explant quadrant was blotted dry and was placed in 500 uL of 2 mg/mL Proteinase K (Fisher Scientific, Fair Lawn, N.J.) in TE Buffer solution (10 mM Tris, 1 mM EDTA) and was allowed to rotate at 57 degrees C. for 24 hours in a hybridization oven until completely dissolved. Quantification of ^35S-labeled proteoglycans complexed to alcian blue by rapid filtration in multiwall plates was adopted and modified from Masuda et al Anal. Biochem 1994; 217:167-75. 75 uL of dilution buffer (50 mM Sodium Acetate pH^− 5.8. 0.5% Triton X-100) was added to each well of a 96 well plate (Millipore Multiscreen 96-well filtration system, Millipore, Billerica, Mass.) 25 uL of each digested cartilage explant sample was then loaded followed by 150 uL of 0.2% alcian blue solution (Alcian Blue 8GX electrophoresis grade, Sigma-Aldrich Inc., St. Louis Mo.) and was allowed to rotate for 1 hour at room temperature. The 96-well plate was then placed over a vacuum-manifold to aspirate the contents of the wells through the screen. The 3×200 uL vacuum washes with wash buffer (50 mM sodium acetate pI-I 5.8, 100 mM sodium sulfate, 50 mM MgCl2) were then performed. The 96-well filtration plate was then completely dried at 57 degrees C. for 5 minutes in a hybridization oven and was exposed to storage phosphor screen for 24 hours (Packard Instrument Company Inc., Meriden. Conn.). Phosphorimaging with Cyclone model A431200 (Packard Instrument Company Inc. Meriden, Conn.) was performed to quantify ^35S uptake by proteoglycans. ^35S uptake by proteoglycans in cartilage explants was normalized to DNA by Quant-iT ds DNA Assay Kit (Invitrogen Inc., Carlsbad Calif.).
Reported clinical experiments indicate that 10% dextrose injected in the joint can have a therapeutic effect on osteoarthritis. To test this effect, human osteoarthritic cartilage explants (Grade II) were treated with glucose at physiologic (0.45%) or were treated with supraphysiologic (2.5% and 5%) concentrations with 500 uM cyanidin chloride.

Q: Which results are given for OC[C@H]1O[C@@H](Oc2cc3c(O)cc(O)cc3[o+]c2-c2ccc(O)c(O)c2)[C@H](O)[C@@H](O)[C@@H]1O.[Cl-] [Kuromanin chloride]?
A: non-toxic concentration [1]: 100 µM; IGF-1 production compared to IL-1 alone [2]: increased; also recorded: greater than IL-1 alone when treated with kuromanin alone or in combination with IL-1; GAG release under basal conditions [3]: some catabolic effects that may reflect cell toxicity; also recorded: tendency for the high dose of kuromanin to promote GAG release; IL-1 induced GAG release (chondroprotection) [3]: able to prevent GAG (glycosaminoglycan) release compared to control; also recorded: effective chondroprotective agents limiting the degradation of human cartilage against the catabolic effects of IL-1; also recorded: blocked; IL-1 induced GAG release (chondroprotection) ([3]; listed as KuCl): blocked IL-1 induced GAG release

Q: For O=C[C@H](O)[C@@H](O)[C@H](O)[C@H](O)CO [glucose], which “matrix synthesis (35S uptake)” value ([4]; glucose 0.45% (low, physiologic)) is on record?
A: stimulate matrix synthesis more than higher concentrations of glucose; also recorded: beneficial effect

Q: What about the “matrix synthesis (35S uptake)” value ([4]; supraphysiologic glucose (2.5% and 5%)) of the same compound?
A: reduced matrix synthesis; also recorded: suppressed matrix synthesis

Q: For Oc1cc(O)c2cc(O)c(-c3ccc(O)c(O)c3)[o+]c2c1 [Cyanidin chloride], which non-toxic concentration [1] is on record?
A: 100 µM

Q: And the IGF-1 production ([2]; explants, IL-1 with high dose 50 ug/mL)?
A: no benefit was observed

Q: What about the IGF-1 production ([2]; explants, IL-1 with low dose 5 ug/mL) of the same compound?
A: restoration of control IGF-1 production

Q: And the “basal IGF-1 production” value ([2]; explants, high dose alone)?
A: did not express basal IGF-1 production

Q: What about the “IGF-1 production compared to IL-1 alone” value [2] of the same compound?
A: increased; also recorded: greater than IL-1 alone when treated with cyanidin alone or in combination with IL-1

Q: What about the “GAG release under basal conditions” value [3] of the same compound?
A: not evident

Q: And the “IL-1 induced GAG release (chondroprotection)” value (shortened to “IL-1 induced GAG release”) ([3]; listed as CC1)?
A: blocked IL-1 induced GAG release

Q: What about the “IL-1 induced GAG release” value ([3]; listed as cyanidin) of the same compound?
A: able to prevent GAG (glycosaminoglycan) release compared to control; also recorded: effective chondroprotective agents limiting the degradation of human cartilage against the catabolic effects of IL-1

Q: And the “IL-1 induced GAG release” value ([3]; listed as cyanidin chloride)?
A: chondroprotective; also recorded: blocked

Q: And the “synergy of cyanidin and glucose on matrix synthesis” value ([4]; cyanidin 500 uM combined with glucose)?
A: did not have significant synergistic effect

Q: And the “matrix synthesis (35S uptake)” value ([4]; human OA Grade II explants, 500 uM at 0.45% glucose)?
A: no effect on matrix synthesis

Q: What about the “matrix synthesis (35S uptake)” value ([4]; human OA grade II-III explants, 500 uM) of the same compound?
A: no effect on human OA explants; also recorded: did not increase matrix synthesis in human OA tissue

Reference: patent US9987296B2, “Compositions including anthocyanin or anthocyanidin for the prevention or treatment of Articular cartilage-associated conditions” (priority 2008, dated 2018)
